From article PMC6331910, “The Curcumin Analogue 1,5-Bis(2-hydroxyphenyl)-1,4-pentadiene-3-one Induces Apoptosis and Downregulates E6 and E7 Oncogene Expression in HPV16 and HPV18-Infected Cervical Cancer Cells” (Molecules, 2015)
Like-named read-outs stand apart in the source and are kept apart here.

Tests used:
MRC9 = assay: MTT cell viability (cytotoxicity) assay on non-cancerous lung fibroblasts, 72 h; type: cell-based; details: Homo sapiens, read-out: EC50 (Mean ± S.E.M.) MRC9
Protocol: (§1) HeLa, CaSki and MRC9 cells were plated in triplicate wells in 96-well flat-bottomed tissue culture plates (Nunc, Roskilde, Denmark) with 10^5 cells per mL in 100 μL culture media with working concentrations of diarylpentanoid treatment ranging from 1.6 to 100 μM. Control-treated wells contained cells incubated in media with equal volumes of DMSO (0.2%). Cells were treated for 72 h for dose-dependent cytotoxicity assays and at 24, 48 and 72 h for anti-proliferative (time-dependent) assays. In order to assess cell viability and anti-proliferative activity after diarylpentanoid treatment, the colorimetric 3-(4,5-dimethylthiazol-2-yl)-2,5-diphenyltetrazolium bromide (MTT) assay was performed as previously described with modifications. The media was aspirated and cells were incubated in 100 µL complete medium with 0.5 mg/mL MTT solution for 4 h in the dark to allow metabolism of MTT by cellular mitochondrial dehydrogenases. The excess MTT was aspirated and the formazan crystals formed were dissolved by the addition of 100 µL of DMSO. The absorbance of dark blue formazan was read at 570/650 nm wavelengths using a microplate reader (Bio-Rad Benchmark Plus Microplate Spectrophotometer, Hercules, CA, USA). Triplicate absorbance values were averaged and the effect of the compounds on growth inhibition was assessed as percentage cell viability as follows: (1) Percentage cell viability =Absorbance of Test − Absorbance of Blank (media only)/Absorbance of Control − Absorbance of Blank (media only) × 100 where, absorbance = optical density of sample, O.D.; control = untreated sample; test = treated sample.
The results were analysed using GraphPad Prism version 6.00 for Windows (GraphPad Software, La Jolla, CA, USA). Using percentage cell viability Equation (1), log dose–response curves were constructed, from which the half maximal effective concentration, EC50 for each replicate was determined. Overall EC50 was determined by taking the average EC50 from three independent experiments. […] (3) Selectivity Index (SX) =EC50 (MRC9)/EC50 (Cancer cell line) × 100

HeLa [1] = assay: MTT cell viability (dose-dependent cytotoxicity) assay, 72 h; type: cell-based, human; details: for Selective Index HeLa: EC50 (MRC9)/EC50 (HeLa) × 100; for EC50: read-out: EC50 (Mean ± S.E.M.) HeLa
Protocol: (§2) Control-treated wells contained cells incubated in media with equal volumes of DMSO (0.2%). […] The media was aspirated and cells were incubated in 100 µL complete medium with 0.5 mg/mL MTT solution for 4 h in the dark to allow metabolism of MTT by cellular mitochondrial dehydrogenases. The excess MTT was aspirated and the formazan crystals formed were dissolved by the addition of 100 µL of DMSO. The absorbance of dark blue formazan was read at 570/650 nm wavelengths using a microplate reader (Bio-Rad Benchmark Plus Microplate Spectrophotometer, Hercules, CA, USA). Triplicate absorbance values were averaged and the effect of the compounds on growth inhibition was assessed as percentage cell viability as follows: […] The results were analysed using GraphPad Prism version 6.00 for Windows (GraphPad Software, La Jolla, CA, USA). […] Overall EC50 was determined by taking the average EC50 from three independent experiments.

CaSki [2] = assay: as above; type: cell-based, human; details: for Selective Index CaSki: EC50 (MRC9)/EC50 (CaSki) × 100; for EC50: read-out: EC50 (Mean ± S.E.M.) CaSki
Protocol: as §2

HeLa [3] = assay: MTT anti-proliferative (time-dependent) assay, 24, 48 and 72 h; type: cell-based, human; details: for concentration from which a notable decline in cell viability was caused / cell growth: at 24, 48 and 72 h; for reduction of cell viability: 12.5 μM and above
Protocol: as §1
(§3) An independent set of vehicle-treated (DMSO only) controls were included in the anti-proliferative assays to assess the proliferation of untreated cancer cells over 24, 48 and 72 h. As such, the cell viability at 24 h was used as a baseline to measure proliferation rate at 48 and 72 h. (2) Percentage cell viability = […]/Absorbance of Control (24 h) × Absorbance of Blank (media only) × 100

CaSki [4] = assay: as above; type: cell-based, human; details: for effect on cell viability / concentration from which a notable decline in cell viability was caused: at 24, 48 and 72 h; for cell viability: 6.3–100 μM
Protocol: as §1, §3

[5] = MRC9, MTT, 72 h, non-cancerous lung fibroblasts
[6] = Homo sapiens, Ca-Ski, MTT, 72 h

**Q.** Which results are given for `O=C(C=Cc1cccc(F)c1)C=Cc1cccc(F)c1` [MS40E, 1,5-bis(3-fluorophenyl)-1,4-pentadiene-3-one]?
**A.** EC50 (MRC9; [5]): 31.7 ± 3.2 µM; Selective Index HeLa (HeLa [1]): 204; EC50 (HeLa [1]; Homo sapiens, HeLa, MTT, 72 h): 15.5 ± 1.9 µM; inhibition at 25 µM (HeLa [1]; Homo sapiens, HeLa, beginning at 25 μM, 72 h, read-out: growth inhibition): ~75%; Selective Index CaSki (CaSki [2]): 906; inhibition at 6.3 µM (CaSki [2]; Homo sapiens, Ca-Ski, CaSki, 6.3 μM, 72 h, read-out: growth inhibition): 80%; inhibition at 100 µM (CaSki [2]; Homo sapiens, Ca-Ski, CaSki, 100 μM, 72 h, read-out: growth inhibition): 90%; EC50 (CaSki [2]; [6]): 3.5 ± 0.4 µM; concentration from which a notable decline in cell viability was caused (HeLa [3]): 25 µM; cell growth (HeLa [3]; onwards from 25 μM): below 50%; effect on cell viability (CaSki [4]; 12.5 μM onwards): significant decline in cell viability; concentration from which a notable decline in cell viability was caused (CaSki [4]): 12.5 µM

**Q.** With `COc1cc(C=CC(=O)C=Cc2ccc(O)c(OC)c2)ccc1O` [MS13, 1,5-bis(4-hydroxy-3-methoxyphenyl)-1,4-pentadiene-3-one] as the compound, how does the EC50 (MRC9; MRC9, 72 h) read?
**A.** 9.7 ± 2.4 µM

**Q.** And the “Selective Index HeLa” value (HeLa [1])?
**A.** 145

**Q.** And the cell viability (HeLa [1]; HeLa, beyond 12.5 μM, 72 h)?
**A.** less than 10%

**Q.** What about the EC50 (HeLa [1]; Homo sapiens, HeLa, 72 h) of the same compound?
**A.** 6.7 ± 2.4 µM

**Q.** What about the viability at 12.5 µM (HeLa [1]; Homo sapiens, HeLa, 12.5 μM, 72 h) of the same compound?
**A.** ~12%

**Q.** What about the “decrease in cell growth” value (CaSki [2]; CaSki, 3.1 μM, 72 h) of the same compound?
**A.** 50%

**Q.** And the “cell growth after treatment” value (CaSki [2]; CaSki, 6.3–100 μM, 72 h)?
**A.** around 10%

**Q.** What about the “Selective Index CaSki” value (CaSki [2]) of the same compound?
**A.** 346

**Q.** What about the EC50 (CaSki [2]; Homo sapiens, Ca-Ski, 72 h) of the same compound?
**A.** 2.8 ± 0.4 µM

**Q.** And the “dosage from which reduction in cell viability was significantly higher at 48 and 72 h than at 24 h” value (HeLa [3])?
**A.** 12.5 µM

**Q.** What about the “reduction of cell viability” value (HeLa [3]; 24 h) of the same compound?
**A.** 72%

**Q.** What about the “reduction of cell viability” value (HeLa [3]; 48 h) of the same compound?
**A.** approximately 91%

**Q.** And the “reduction of cell viability” value (HeLa [3]; 72 h)?
**A.** ~95%

**Q.** And the “dosage from which reduction in cell viability was significantly higher at 48 and 72 h than at 24 h” value (CaSki [4])?
**A.** 6.3 µM

**Q.** And the cell viability (CaSki [4]; 48 h)?
**A.** 21%

**Q.** What about the cell viability (CaSki [4]; 72 h) of the same compound?
**A.** 9%

**Q.** And the viability at 12.5 µM (CaSki [4]; Homo sapiens, Ca-Ski, 12.5 μM, 24 h, read-out: decline of cell viability)?
**A.** ~50%

**Q.** How did the EC50 (MRC9; [5]) turn out when `COc1cc(/C=C/C(=O)CC(=O)/C=C/c2ccc(O)c(OC)c2)ccc1O` [Curcumin] was run?
**A.** 26.6 ± 3.2 µM

**Q.** What about the “Selective Index HeLa” value (HeLa [1]) of the same compound?
**A.** 100

**Q.** And the EC50 (HeLa [1]; Homo sapiens, HeLa, MTT, 72 h)?
**A.** 26.7 ± 14.3 µM

**Q.** What about the inhibition at 50 µM (HeLa [1]; Homo sapiens, HeLa, beginning at 50 μM, 72 h, read-out: growth inhibition) of the same compound?
**A.** ~50%

**Q.** What about the “Selective Index CaSki” value (CaSki [2]) of the same compound?
**A.** 168

**Q.** And the inhibition at 25 µM (CaSki [2]; Homo sapiens, Ca-Ski, CaSki, 25 μM, 72 h, read-out: growth inhibition)?
**A.** 50%

**Q.** What about the EC50 (CaSki [2]; [6]) of the same compound?
**A.** 15.8 ± 3.1 µM

**Q.** What about the “concentration from which a notable decline in cell viability was caused” value (“concentration” below) (HeLa [3]) of the same compound?
**A.** 50 µM

**Q.** What about the cell growth (HeLa [3]; onwards from 50 μM) of the same compound?
**A.** below 50%

**Q.** What about the “concentration” value (CaSki [4]) of the same compound?
**A.** 25 µM

**Q.** And the “effect on cell viability” value (CaSki [4]; from 25 μM onwards)?
**A.** significant decline in cell viability

**Q.** For `O=C1C(=Cc2cccc(F)c2)CCCC1=Cc1cccc(F)c1` [MS49, 2,6-bis(3-fluorobenzylidene)cyclohexanone], which EC50 (MRC9; [5]) is on record?
**A.** 16.4 ± 4.4 µM

**Q.** What about the “Selective Index HeLa” value (HeLa [1]) of the same compound?
**A.** 199

**Q.** And the EC50 (HeLa [1]; Homo sapiens, HeLa, MTT, 72 h)?
**A.** 8.3 ± 4.6 µM

**Q.** And the inhibition at 12.5 µM (HeLa [1]; Homo sapiens, HeLa, beginning at 12.5 μM, 72 h, read-out: growth inhibition)?
**A.** ~75%

**Q.** What about the cell viability (CaSki [2]; CaSki, 25–100 μM, 72 h) of the same compound?
**A.** around 10%

**Q.** And the “Selective Index CaSki” value (CaSki [2])?
**A.** 273

**Q.** What about the viability at 12.5 µM (CaSki [2]; Homo sapiens, Ca-Ski, CaSki, 12.5 μM, 72 h) of the same compound?
**A.** 20%

**Q.** And the EC50 (CaSki [2]; [6])?
**A.** 6 ± 2.9 µM

**Q.** And the “concentration” value (HeLa [3])?
**A.** 25 µM

**Q.** What about the cell growth (HeLa [3]; onwards from 25 μM) of the same compound?
**A.** below 50%

**Q.** And the “effect on cell viability” value (CaSki [4]; 12.5 μM onwards)?
**A.** significant decline in cell viability

**Q.** And the “concentration” value (CaSki [4])?
**A.** 12.5 µM
